This experiment has as its target T1, CwTPS8 (Curcuma wenyujin, UniProt A0A8E5B8H5).
T1 construct: complete ORF in pMAL-His (pMAL-c2x with His(8)-tag), E. coli BL21(DE3), Ni-NTA purified; tag removal not described
The experiment can be described thus: GC-MS of hexane-extracted products. The experiment is classed as biochemical. The settings on record: formation of main product β-caryophyllene; 50 mM HEPES pH 7.5, 10 mM MgCl2, 5 mM DTT, 5% glycerol; 30°C, 10 min; 10-150 µM FPP; read-out: K m of β-caryophyllene.

T1 sequence (A0A8E5B8H5 entry or part of it): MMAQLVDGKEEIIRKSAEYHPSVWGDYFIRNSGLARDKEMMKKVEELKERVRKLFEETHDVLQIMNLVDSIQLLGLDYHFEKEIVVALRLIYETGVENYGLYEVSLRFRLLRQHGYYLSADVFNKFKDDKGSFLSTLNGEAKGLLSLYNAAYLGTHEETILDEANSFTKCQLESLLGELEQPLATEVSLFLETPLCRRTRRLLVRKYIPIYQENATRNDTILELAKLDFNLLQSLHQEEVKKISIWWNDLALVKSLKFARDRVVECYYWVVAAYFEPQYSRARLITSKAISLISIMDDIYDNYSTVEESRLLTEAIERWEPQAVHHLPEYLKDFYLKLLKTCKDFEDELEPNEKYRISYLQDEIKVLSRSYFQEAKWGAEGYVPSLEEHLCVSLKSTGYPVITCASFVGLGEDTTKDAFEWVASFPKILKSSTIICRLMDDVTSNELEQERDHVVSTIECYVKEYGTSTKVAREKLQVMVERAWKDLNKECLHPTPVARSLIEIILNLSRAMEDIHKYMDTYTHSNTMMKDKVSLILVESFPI

For the compound `CC(C)=CCC/C(C)=C/CC/C(C)=C/CO[P@@](=O)(O)OP(=O)(O)O` [FPP], the Km is 28 µM.
